Source: US5475028A (Zaidan Hojin Seisan Kaihatsu Kagaku Kenkyusho, priority 1992, dated 1995)

Columns and labels:
[1] = test system: Isolated liver cells of rats; assay: Anti-hepatitis test: disorder of the isolated liver cells, carbon tetrachloride; format: cell-based; conditions: isolated rat liver cells, carbon tetrachloride vapor; test substance 0.1 mg/ml solution, 1 ml added to 2 ml; supernatant; Table 2; n = 8; * p < 0.05
Procedure: (2) Disorder of the isolated liver cells a. Carbon tetrachloride Isolated liver cells of rats were prepared by means of […] collagenase irrigation method, whereby a liver cell suspension was prepared to a concentration of 6×10^8 liver cells/mi. Into 2 ml of the suspension in an Erlenmeyer flask of a 10 ml capacity was put a test tube of about 0.5 capacity containing carbon tetrachloride to saturate the reaction system with carbon tetrachloride vapor, and after the flask was tightly stoppered, preincubation was carried out at 37° C. for 5 min. One ml of a test substance solution prepared at a concentration of 0.1 mg/ml Hunk's solution was added to the suspension of liver cells, while 1 ml of Hunk's solution was added to the control.

[2] = test system: Liver disorder (hepatopathy) in mice; assay: Anti-hepatitis test: liver disorder (hepatopathy) in mice, carbon tetrachloride; format: in vivo, dyy-strain male mice; conditions: carbon tetrachloride i.p., test substance 1.0 mg/ml i.p. 3 h later, blood at 24 h, Table 1, * p < 0.05
Procedure: (1) Liver disorder (hepatopathy) in mice A group of 8 dyy-strain male mice (weighing 23 to 25 g), kept fasting from the previous day was treated by intraperitoneal injection of a 25% solution of carbon tetrachloride in olive oil at a dose of […] and thereafter allowed free access to food. Three hours after the administration of carbon tetrachloride, the mice were given a 1.0 mg/ml concentrated suspension of the test substance, as prepared in conjunction with powdered gum arabic, by intra-peritoneal injection at a dose of 0.1 ml/body weight. Twenty four hours after the administration of carbon tetrachloride, blood samples were drawn from the mice under anesthesia with ether through the abdominal descending aorta.

[3] = test system: Isolated liver cells of rats; assay: Anti-hepatitis test: disorder of the isolated liver cells, antibody against rat liver cell membranes; format: cell-based; conditions: antiserum against rat liver cell membranes, test substance 0.1 mg/ml solution, 1 ml added to 2 ml, supernatant, Table 3, n = 8, * p < 0.05
Procedure: (2) Disorder of the isolated liver cells
b. Antibody against rat liver cell membranes
Isolated liver cells of rats were prepared by means of Segren's collagenase irrigation method, whereby a liver cell suspension was prepared at a concentration of 6×10^8 liver cells/mi. An Erlenmeyer flask of a 10 ml capacity in which 2 ml of the suspension had been placed was saturated with 95% oxygen, and after the flask was tightly stoppered, preincubation was carried out at 37° C. for 5 min. One ml of a test substance solution prepared at a concentration of 0.1 mg/ml Hunk's solution was added to the liver cell suspension, while 1 ml of the Hunk's solution was added to the control, followed by incubation for another 5 min, and antiserum against rat liver cell membranes (a 50-fold diluted serum) was added. A specifically determined volume of the reaction solution was pipetted out 0 and 30 min after the initiation of reaction, respectively, and immediately centrifuged under 500 g for 30 seconds, and the ALT, AST and LDH as leached out into the supernatant liquid were determined for activity by the Lippie method.

[4] = test system: Stomach injury through water-immersion constraint stress; assay: Anti-ulcer test: stomach injury through water-immersion constraint stress; format: in vivo, male rats of KBL Wistar strain; conditions: rats; for Suppression rate: 30 min before water-soaking constraint, 7 h, ulcer length, * p < 0.05
Procedure: (2) Stomach injury through water-immersion constraint stress
Rats weighing 183 to 235 g were fasted with free access to water for 24 hours before being used in the experiment. The rats were divided into groups each consisting of 10 heads in such a way as their mean body weights were nearly uniform, stress-loaded by soaking the animals as placed in a stress cage of Univ. of Tokyo type in a water tank at 23° C. up to the xiphoid and sacrificed through cervical vertebrae dislocation 7 hours later. The stomachs were removed and treated with formalin, and individual ulcers formed in the glandula portion of the stomach were measured in length (mm), with the measured ulcer lengths being summed for each rat. The test substance was suspended in a 0.5% aqueous solution of sodium carboxymethylcellulose, and the suspension was given to the test group orally at a dose of 10 ml/kg body weight 30 min before the water-soaking constraint, whereas the vehicle alone was applied to the control group.

mice = assay: Acute toxicity test; format: in vivo, Male, SLC:ICR (SPE) mice; conditions: oral
Procedure: Male, SLC:ICR (SPE) mice weighing 20 g, divided into groups each consisting of 5 heads, were treated by oral administration of the test compound suspended in gum arabic at doses of 1,000 mg/kg, 1,500 mg/kg and 2,500 mg/kg test compound, followed by observation for any abnormalities.

[5] = Overall anti-hepatitis, liver-function improving and anti-ulcer activities (summary of tests)
[6] = test system: Stomach injury with hydrochloric acid/ethanol; assay: Anti-ulcer test: stomach injury with hydrochloric acid/ethanol; format: in vivo, male rats of KBL Wistar strain; conditions: rats; for Suppression rate: 30 min before hydrochloric acid/ethanol, ulcer length
Procedure: (1) Stomach injury with hydrochloric acid/ethanol:
Rats weighing 193 to 228 g were fasted with free access to water for 24 hours before being used in the experiment. The rats were divided into groups each consisting of 10 heads in such a way as their mean body weights were nearly uniform, treated through oral administration of hydrochloric acid/ethanol (0.15 mole hydrochloric acid solution in 80% ethanol) at a dose of 5 ml/kg body weight and sacrificed through cervical vertebrae dislocation 1 hour after administration. The stomachs were removed and treated with formalin, and individual ulcers formed in the glandula portion of the stomach were measured in length (mm), with the measured ulcer lengths being summed for each rat. The test substance was suspended in a 0.5% aqueous solution of sodium carboxymethylcellulose, and the suspension was given to the test group orally at a dose of 10 ml/kg body weight 30 min before administration of hydrochloric acid/ethanol, whereas the vehicle alone was applied to the control group.

| Molecule | ALT, mean ± S.D. [1] [IU] | AST, mean ± S.D. [1] [IU] | ALT, mean ± S.D. [2] [IU] | AST, mean ± S.D. [2] [IU] | LDH, mean ± S.D. [2] [IU] | ALT, mean ± S.D. [3] [IU] | AST, mean ± S.D. [3] [IU] | LDH, mean ± S.D. [3] [IU] | Suppression rate ([4]; 50 mg/kg oral) [%] | Suppression rate ([4]; 100 mg/kg oral) [%] | Suppression rate ([4]; 200 mg/kg oral) [%] | UD50 ([4]; oral, water-immersion constraint stress, 95% C.L. 97.9~113, 420 min) [mg/kg] | LD50 (mice) | deaths (mice; doses up to 2,500 mg/kg) | anti-hepatitis, liver-function improving and anti-ulcer activities [5] | suppression against increases in activities of ALT, AST and LDH ([5]; Tables 1 to 3, as compared with the control compounds currently in use) | Suppression rate ([6]; 50 mg/kg oral) [%] | Suppression rate ([6]; 100 mg/kg oral, * p < 0.01) [%] | Suppression rate ([6]; 200 mg/kg oral, * p < 0.01) [%] | UD50 ([6]; oral, hydrochloric acid/ethanol, 95% C.L. 83.4~94.3, 60 min) [mg/kg] |
| --- | --- | --- | --- | --- | --- | --- | --- | --- | --- | --- | --- | --- | --- | --- | --- | --- | --- | --- | --- | --- |
| N[C@@H](CCC(=O)N[C@@H](CS)C(=O)NCC(=O)O)C(=O)O [Glutathione] | 1176.1 ± 123.7 | 321.7 ± 94.4 | 19423.1 ± 1042.3 | 9643.6 ± 3874.3 | 32392 ± 7906 | 2257.8 ± 581.6 | 1759.4 ± 394.3 | 2541.1 ± 563.4 | – | – | – | – | – | – | – | – | – | – | – | – |
| CC1(C)[C@@H](O[C@H]2O[C@H](C(=O)O)[C@@H](O)[C@H](O)[C@H]2O[C@@H]2O[C@H](C(=O)O)[C@@H](O)[C@H](O)[C@H]2O)CC[C@]2(C)[C@H]3C(=O)C=C4[C@@H]5C[C@@](C)(C(=O)O)CC[C@]5(C)CC[C@@]4(C)[C@]3(C)CC[C@@H]12 [Glycyrrhizin] | 1089.7 ± 210.2 | 267.8 ± 78.1 | 8339.3 ± 2420.1 | 8949.6 ± 4530.0 | 26457 ± 11086 | 1764.8 ± 437.1 | 1358.4 ± 324.1 | 2163.1 ± 562.7 | – | – | – | – | – | – | – | – | – | – | – | – |
| CC(S)C(=O)NCC(=O)O (centres unmarked) [Thiopronine] | 1426.9 ± 199.5 | 956.8 ± 219.5 | 4941.2 ± 1537.7 | 4884.5 ± 1097.5 | 26789 ± 9753 | 1826.5 ± 479.5 | 1623.7 ± 432.8 | 2583.7 ± 634.1 | – | – | – | – | – | – | – | – | – | – | – | – |
| Zinc-[bis(2-aminoethanesulfonic acid).bis(sodium 2-aminoethanesulfonate)] [FTZ] | 1107.1 ± 168.8 | 345.7 ± 72.8 | 4265.7 ± 1347.6 | 3215.8 ± 967.7 | 15865 ± 5300.8 | 1429.5 ± 327.8 | 1025.8 ± 268.4 | 1875.3 ± 437.1 | 26.4 | 56.1 | 64.5 | 105 | > 2,500 mg/kg | did not cause any animal to die | exhibits anti-hepatitis, liver-function improving and anti-ulcer activities | significantly enhanced suppression | 32.1 | 53.5 | 74.9 | 88.7 |
